Laboratory results published in patent US6358522B1, “Pharmaceutical compositions containing lipase inhibitor” (Hoffmann-La Roche Inc., priority 1998, dated 2002).

Experiment: Anal leakage of oil in rats on high fat diet with diet-admixed orlistat
Type: in vivo
Source text: Rats maintained on high fat diet were used as models. […] However, the amount of oil leakage could not easily be determined. Due to coprophagia and extensive grooming activity the rats distributed the oil to a large extent over their fur. Moreover, this stressful condition of unsuccessful grooming provoked considerable excitation of the animals. The area of greasy fur increased in proportion to the amount of unabsorbed fat and was reduced by dietary admixture of selected examples of the above defined food additives. However, for reasons of animal care for comparative evaluation of the additives a surrogate parameter was used to assess effects on oil leakage. Following a meal containing orlistat, unabsorbed fat is temporarily stored in the caecum of the rat prior to excretion. The fat is partly present as floating liquid oil, partly associated with unabsorbable solids.

Anal leakage of oil: provoked anal leakage of liquid oil
SMILES: CCCCCCCCCCC[C@@H](C[C@@H]1OC(=O)[C@H]1CCCCCC)OC(=O)[C@H](CC(C)C)NC=O [orlistat, N-formyl-L-leucine ester with (3S,4S)-3-hexyl-4-[(2S)-2-hydroxy-tridecyl]-2-oxetanone]
